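1) Cells in 96-well plates. 2) Compound, 48 h, 5 concentrations. 3) Linear interpolation between surrounding doses. 4) Unreached endpoint = highest concentration. GI50 marks 50% less growth. TGI denotes the concentration required for complete inhibition of growth.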
How the values were obtained:
Test in all cases: NCI anticancer screen, dose series, 48 h
DU-145 prostate = system: DU-145 prostate
NCI-H460 lung = system: NCI-H460 lung
RXF 393 renal = system: RXF 393 renal
SW-620 colon = system: SW-620 colon
TK-10 renal = system: TK-10 renal
A498 renal = system: A498 renal
A549 NSCLC = system: A549 NSCLC
ACHN renal = system: ACHN renal
BT-549 breast = system: BT-549 breast
CAKI-1 renal = system: CAKI-1 renal
CCRF-CEM leukemia = system: CCRF-CEM leukemia
COLO 205 colon = system: COLO 205 colon
EKVX NSCLC = system: EKVX NSCLC
HCC-2998 colon = system: HCC-2998 colon
HCT-116 colon = system: HCT-116 colon
HCT-15 colon = system: HCT-15 colon
HL-60(TB) leukemia = system: HL-60(TB) leukemia
HOP-62 NSCLC = system: HOP-62 NSCLC
HOP-92 NSCLC = system: HOP-92 NSCLC
HS 578T breast = system: HS 578T breast
IGROV1 ovarian = system: IGROV1 ovarian
K-562 leukemia = system: K-562 leukemia
KM12 colon = system: KM12 colon
LOX IMVI melanoma = system: LOX IMVI melanoma
M14 melanoma = system: M14 melanoma
MALME-3M melanoma = system: MALME-3M melanoma
MCF7 breast = system: MCF7 breast
MDA-MB-231 breast = system: MDA-MB-231 breast
MDA-MB-435 = system: MDA-MB-435
MOLT-4 leukemia = system: MOLT-4 leukemia
NCI-H226 lung = system: NCI-H226 lung
NCI-H23 lung = system: NCI-H23 lung
NCI-H522 lung = system: NCI-H522 lung
NCI/ADR-RES ovarian = system: NCI/ADR-RES ovarian
OVCAR-4 ovarian = system: OVCAR-4 ovarian
OVCAR-5 ovarian = system: OVCAR-5 ovarian
OVCAR-8 ovarian = system: OVCAR-8 ovarian
PC-3 prostate = system: PC-3 prostate
RPMI-8226 leukemia = system: RPMI-8226 leukemia
SF-268 CNS = system: SF-268 CNS
SF-295 CNS = system: SF-295 CNS
SF-539 CNS = system: SF-539 CNS
SK-MEL-2 melanoma = system: SK-MEL-2 melanoma
SK-MEL-28 melanoma = system: SK-MEL-28 melanoma
SK-MEL-5 melanoma = system: SK-MEL-5 melanoma
SK-OV-3 ovarian = system: SK-OV-3 ovarian
SN12C renal = system: SN12C renal
SNB-19 CNS = system: SNB-19 CNS
SR leukemia = system: SR leukemia
U251 CNS = system: U251 CNS
UACC-257 melanoma = system: UACC-257 melanoma
UO-31 renal = system: UO-31 renal
786-0 renal = system: 786-0 renal
HT29 colon = system: HT29 colon
OVCAR-3 ovarian = system: OVCAR-3 ovarian
SNB-75 CNS = system: SNB-75 CNS
UACC-62 melanoma = system: UACC-62 melanoma

`CC(C)c1ccc(Cn2ccc3c4c(N)nc(NC5CC5)nc4ccc32)cc1` was tested, and the GI50 (DU-145 prostate) was 0.399 µM, the TGI (DU-145 prostate) was 1.38 µM and the GI50 (NCI-H460 lung) was 0.198 µM. The TGI (NCI-H460 lung) was 1.07 µM, the GI50 (RXF 393 renal) was 0.172 µM and the TGI (RXF 393 renal) was 0.58 µM. It also gave a GI50 (SW-620 colon) of 0.326 µM, a TGI (SW-620 colon) of 1.32 µM and a GI50 (TK-10 renal) of 1.23 µM. For the same compound, the TGI (TK-10 renal) was 2.57 µM.
With `COC(=O)[C@H]1C=NN[C@@H]1C(=O)N1[C@H]2CC3CC[C@@]2(CS1(=O)=O)C3(C)C` the TGI (A498 renal) was > 100 µM, the TGI (A549 NSCLC) was > 100 µM and the TGI (ACHN renal) was > 100 µM. For the same compound, the TGI (BT-549 breast) was > 100 µM, the TGI (CAKI-1 renal) was > 100 µM and the TGI (CCRF-CEM leukemia) was > 100 µM. For the same compound, the TGI (COLO 205 colon) was > 100 µM, the TGI (DU-145 prostate) was > 100 µM and the TGI (EKVX NSCLC) was > 100 µM. The TGI (HCC-2998 colon) was > 100 µM, the TGI (HCT-116 colon) was > 100 µM and the TGI (HCT-15 colon) was > 100 µM. The TGI (HL-60(TB) leukemia) was > 100 µM, the TGI (HOP-62 NSCLC) was > 100 µM and the TGI (HOP-92 NSCLC) was > 100 µM. The TGI (HS 578T breast) was > 100 µM, the TGI (IGROV1 ovarian) was > 100 µM and the TGI (K-562 leukemia) was > 100 µM. For the same compound, the TGI (KM12 colon) was > 100 µM, the TGI (LOX IMVI melanoma) was > 100 µM and the TGI (M14 melanoma) was > 100 µM. The TGI (MALME-3M melanoma) was > 100 µM, the TGI (MCF7 breast) was > 100 µM and the TGI (MDA-MB-231 breast) was > 100 µM. The TGI (MDA-MB-435) was > 100 µM, the TGI (MOLT-4 leukemia) was > 100 µM and the TGI (NCI-H226 lung) was > 100 µM. The TGI (NCI-H23 lung) was > 100 µM, the TGI (NCI-H460 lung) was > 100 µM and the TGI (NCI-H522 lung) was > 100 µM. The TGI (NCI/ADR-RES ovarian) was > 100 µM, the TGI (OVCAR-4 ovarian) was > 100 µM and the TGI (OVCAR-5 ovarian) was > 100 µM. For the same compound, the TGI (OVCAR-8 ovarian) was > 100 µM, the TGI (PC-3 prostate) was > 100 µM and the TGI (RPMI-8226 leukemia) was > 100 µM. The TGI (SF-268 CNS) was > 100 µM, the TGI (SF-295 CNS) was > 100 µM and the TGI (SF-539 CNS) was > 100 µM. For the same compound, the TGI (SK-MEL-2 melanoma) was > 100 µM, the TGI (SK-MEL-28 melanoma) was > 100 µM and the TGI (SK-MEL-5 melanoma) was > 100 µM. For the same compound, the TGI (SK-OV-3 ovarian) was > 100 µM, the TGI (SN12C renal) was > 100 µM and the TGI (SNB-19 CNS) was > 100 µM. The TGI (SR leukemia) was > 100 µM, the TGI (SW-620 colon) was > 100 µM and the TGI (TK-10 renal) was > 100 µM. The TGI (U251 CNS) was > 100 µM, the TGI (UACC-257 melanoma) was > 100 µM and the TGI (UO-31 renal) was > 100 µM.
`Clc1ccc(-c2cn3ccnc3c(-c3ccc(Cl)cc3)n2)cc1` was tested, and the GI50 (786-0 renal) was 29.5 µM, the TGI (786-0 renal) was > 100 µM and the GI50 (A498 renal) was 30.7 µM. The TGI (A498 renal) was 77.2 µM, the GI50 (A549 NSCLC) was 8.31 µM and the TGI (A549 NSCLC) was > 100 µM. The GI50 (ACHN renal) was 13 µM, the TGI (ACHN renal) was 52.3 µM and the GI50 (BT-549 breast) was 46 µM. The TGI (BT-549 breast) was > 100 µM, the GI50 (CAKI-1 renal) was 4.23 µM and the TGI (CAKI-1 renal) was 46 µM. The GI50 (COLO 205 colon) was 27.6 µM, the TGI (COLO 205 colon) was > 100 µM and the GI50 (DU-145 prostate) was 25.3 µM. The TGI (DU-145 prostate) was > 100 µM, the GI50 (EKVX NSCLC) was 31.9 µM and the TGI (EKVX NSCLC) was > 100 µM. For the same compound, the GI50 (HCT-116 colon) was 12.2 µM, the TGI (HCT-116 colon) was > 100 µM and the GI50 (HCT-15 colon) was 3.38 µM. For the same compound, the TGI (HCT-15 colon) was 30.9 µM, the GI50 (HL-60(TB) leukemia) was 0.954 µM and the TGI (HL-60(TB) leukemia) was 19 µM. For the same compound, the GI50 (HOP-62 NSCLC) was 31.4 µM, the TGI (HOP-62 NSCLC) was > 100 µM and the GI50 (HOP-92 NSCLC) was 15.1 µM. For the same compound, the TGI (HOP-92 NSCLC) was > 100 µM, the GI50 (HS 578T breast) was 26.3 µM and the TGI (HS 578T breast) was 92.4 µM. The GI50 (HT29 colon) was 12.5 µM, the TGI (HT29 colon) was > 100 µM and the GI50 (IGROV1 ovarian) was 21 µM. For the same compound, the TGI (IGROV1 ovarian) was > 100 µM, the GI50 (K-562 leukemia) was 2.25 µM and the TGI (K-562 leukemia) was > 100 µM. The GI50 (KM12 colon) was 5.33 µM, the TGI (KM12 colon) was 37.9 µM and the GI50 (LOX IMVI melanoma) was 12.7 µM. It also gave a TGI (LOX IMVI melanoma) of 31.5 µM, a GI50 (M14 melanoma) of 13.7 µM and a TGI (M14 melanoma) of 84.7 µM. The GI50 (MCF7 breast) was 11.4 µM, the TGI (MCF7 breast) was > 100 µM and the GI50 (MDA-MB-231 breast) was 7.04 µM. It also gave a TGI (MDA-MB-231 breast) of 47 µM, a GI50 (MDA-MB-435) of 2.79 µM and a TGI (MDA-MB-435) of 8.07 µM. The GI50 (MOLT-4 leukemia) was 0.462 µM, the TGI (MOLT-4 leukemia) was > 100 µM and the GI50 (NCI-H226 lung) was 40.8 µM. The TGI (NCI-H226 lung) was > 100 µM, the GI50 (NCI-H23 lung) was 24.3 µM and the TGI (NCI-H23 lung) was 80.1 µM. The GI50 (NCI-H460 lung) was 19.9 µM, the TGI (NCI-H460 lung) was > 100 µM and the GI50 (NCI-H522 lung) was > 100 µM. The TGI (NCI-H522 lung) was > 100 µM, the GI50 (NCI/ADR-RES ovarian) was 11.2 µM and the TGI (NCI/ADR-RES ovarian) was 47.5 µM. The GI50 (OVCAR-3 ovarian) was 16.8 µM, the TGI (OVCAR-3 ovarian) was > 100 µM and the GI50 (OVCAR-5 ovarian) was 32.9 µM. The TGI (OVCAR-5 ovarian) was > 100 µM, the GI50 (OVCAR-8 ovarian) was 16 µM and the TGI (OVCAR-8 ovarian) was > 100 µM. For the same compound, the GI50 (PC-3 prostate) was 19.6 µM, the TGI (PC-3 prostate) was > 100 µM and the GI50 (RPMI-8226 leukemia) was 10.1 µM. The TGI (RPMI-8226 leukemia) was > 100 µM, the GI50 (RXF 393 renal) was 3.57 µM and the TGI (RXF 393 renal) was > 100 µM. For the same compound, the GI50 (SF-268 CNS) was 15.4 µM, the TGI (SF-268 CNS) was > 100 µM and the GI50 (SF-295 CNS) was 11.1 µM. The TGI (SF-295 CNS) was 91.7 µM, the GI50 (SF-539 CNS) was 26.2 µM and the TGI (SF-539 CNS) was > 100 µM. For the same compound, the GI50 (SK-MEL-2 melanoma) was 61.9 µM, the TGI (SK-MEL-2 melanoma) was > 100 µM and the GI50 (SK-MEL-28 melanoma) was > 100 µM. For the same compound, the TGI (SK-MEL-28 melanoma) was > 100 µM, the GI50 (SK-MEL-5 melanoma) was 16.6 µM and the TGI (SK-MEL-5 melanoma) was 43.5 µM. The GI50 (SK-OV-3 ovarian) was 82.8 µM, the TGI (SK-OV-3 ovarian) was > 100 µM and the GI50 (SN12C renal) was 16.7 µM. For the same compound, the TGI (SN12C renal) was 95.1 µM, the GI50 (SNB-19 CNS) was 45.8 µM and the TGI (SNB-19 CNS) was > 100 µM. The GI50 (SNB-75 CNS) was > 100 µM, the TGI (SNB-75 CNS) was > 100 µM and the TGI (SR leukemia) was 4.02 µM. For the same compound, the GI50 (SW-620 colon) was 7.42 µM, the TGI (SW-620 colon) was > 100 µM and the GI50 (TK-10 renal) was 22.6 µM. The TGI (TK-10 renal) was 73.5 µM, the GI50 (U251 CNS) was 12.9 µM and the TGI (U251 CNS) was 57.4 µM. For the same compound, the GI50 (UACC-257 melanoma) was 2.58 µM, the TGI (UACC-257 melanoma) was 33.9 µM and the GI50 (UACC-62 melanoma) was 36.2 µM. The TGI (UACC-62 melanoma) was > 100 µM.
